The compounds below were run against T1, human full-length MKNK1 (Homo sapiens, UniProt Q9BUB5, T385D) (assay: MKNK1 kinase high ATP assay (TR-FRET)). Settings: TR-FRET, 2 mM ATP (high ATP), 15 min preincubation with enzyme, 30 min reaction at 22° C.; read-out: MKNK1 IC50.
T1 construct: GST (N); purchased Carna Biosciences 02-145; host or cells: insect cells (baculovirus expression system)
Type: biochemical
In short: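 Full-length human MKNK1 (T385D) preincubated 15 min at 22 °C with compound in HEPES pH 7.5/MgCl2/DTT buffer; reaction with 2 mM ATP (final) and 0.06 μM biotinylated peptide (final), 30 min at 22 °C.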

T1 sequence (Q9BUB5 1-424 isoform Q9BUB5-2 T344D): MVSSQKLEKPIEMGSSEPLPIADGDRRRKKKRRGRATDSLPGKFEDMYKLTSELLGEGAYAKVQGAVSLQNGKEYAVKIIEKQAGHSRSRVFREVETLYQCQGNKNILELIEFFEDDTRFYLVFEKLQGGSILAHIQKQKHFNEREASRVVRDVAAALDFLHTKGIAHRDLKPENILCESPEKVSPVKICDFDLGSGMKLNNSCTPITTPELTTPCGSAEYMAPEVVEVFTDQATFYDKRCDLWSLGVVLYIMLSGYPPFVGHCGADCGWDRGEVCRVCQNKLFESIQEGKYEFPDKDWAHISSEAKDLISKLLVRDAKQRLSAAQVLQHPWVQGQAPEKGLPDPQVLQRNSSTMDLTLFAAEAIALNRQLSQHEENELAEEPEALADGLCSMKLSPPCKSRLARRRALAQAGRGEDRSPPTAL

IC50 [nM] | SMILES
4.7 | Cc1cc(Nc2ncnc3sc4c(c23)CC[C@H](C(=O)O)C4)c(=O)n2c1C(=O)NC21CCCC1 [Example 34, (7S)-4-[(8′-Methyl-1′,5′-dioxo-1′,5′-dihydro-2′H-spiro[cyclopentane-1,3′-imidazo[1,5-a]pyridin]-6′-yl)amino]-5,6,7,8-tetrahydro[1]benzothieno[2,3-d]pyrimidine-7-carboxylic acid]
1.2 | Cc1cc(Nc2ncnc3sc4c(c23)CC[C@H](C(=O)N2CC[C@H](N(C)C)C2)C4)c(=O)n2c1C(=O)NC21CCCC1 [Example 41, 6′-{[(7S)-7-{[(3S)-3-(Dimethylamino)pyrrolidin-1-yl]carbonyl}-5,6,7,8-tetrahydro[1]benzothieno[2,3-d]pyrimidin-4-yl]amino}-8′-methyl-2′H-spiro[cyclopentane-1,3′-imidazo[1,5-a]pyridine]-1′,5′-dione]
0.9 | Cc1cc(Nc2ncnc3sc4c(c23)CC[C@H](C(=O)N2CC[C@H](N(C)C)C2)C4)c(=O)n2c1C(=O)NC2(C)C [Example 31, 6-{[(7S)-7-{[(3S)-3-(Dimethylamino)pyrrolidin-1-yl]carbonyl}-5,6,7,8-tetrahydro[1]benzothieno[2,3-d]pyrimidin-4-yl]amino}-3,3,8-trimethyl-2,3-dihydroimidazo[1,5-a]pyridine-1,5-dione]
0.6 | Cc1cc(Nc2ncnc3sc4c(c23)CC[C@H](C(=O)N(C)C)C4)c(=O)n2c1C(=O)NC21CCC1 [Example 20, (7S)—N,N-Dimethyl-4-[(8′-methyl-1′,5′-dioxo-1′,5′-dihydro-2′H-spiro[cyclobutane-1,3′-imidazo[1,5-a]pyridin]-6′-yl)amino]-5,6,7,8-tetrahydro[1]benzothieno[2,3-d]pyrimidine-7-carboxamide]
0.1 | CN(C)C(=O)[C@H]1CCc2c(sc3ncnc(Nc4cc(Cl)c5n(c4=O)C4(CCCC4)NC5=O)c23)C1 [Example 86, (7S)-4-[(8′-Chloro-1′,5′-dioxo-1′,5′-dihydro-2′H-spiro[cyclopentane-1,3′-imidazo[1,5-a]pyridin]-6′-yl)amino]-N,N-dimethyl-5,6,7,8-tetrahydro[1]benzothieno[2,3-d]pyrimidine-7-carboxamide]
0.3 | Cc1cc(Nc2ncnc3sc4c(c23)CC[C@H](C(=O)N2CCC2)C4)c(=O)n2c1C(=O)NC21CCCCC1 [Example 3, 6′-{[(7S)-7-(Azetidin-1-ylcarbonyl)-5,6,7,8-tetrahydro[1]benzothieno[2,3-d]pyrimidin-4-yl]amino}-8′-methyl-2′H-spiro[cyclohexane-1,3′-imidazo[1,5-a]pyridine]-1′,5′-dione]
0.3 | Cc1cc(Nc2ncnc3sc4c(c23)CC[C@H](C(=O)N2CCOC[C@H]2C)C4)c(=O)n2c1C(=O)NC21CCCCC1 [Example 18, 8′-methyl-6′-{[(7S)-7-{[(3R)-3-methylmorpholin-4-yl]carbonyl}-5,6,7,8-tetrahydro[1]benzothieno[2,3-d]pyrimidin-4-yl]amino}-2′H-spiro[cyclohexane-1,3′-imidazo[1,5-a]pyridine]-1′,5′-dione]
0.8 | Cc1cc(Nc2ncnc3sc4c(c23)CC[C@H](C(=O)N2CCN(C)[C@H](C)C2)C4)c(=O)n2c1C(=O)NC21CS(=O)(=O)C1 [Example 71, 6-{[(7S)-7-{[(3R)-3,4-Dimethylpiperazin-1-yl]carbonyl}-5,6,7,8-tetrahydro[1]benzothieno[2,3-d]pyrimidin-4-yl]amino}-8-methyl-2H-spiro[imidazo[1,5-a]pyridine-3,3′-thietane]-1,5-dione 1′,1′-dioxide]
0.2 | O=C1NC2(CSC2)n2c1c(Cl)cc(Nc1ncnc3sc4c(c13)CC[C@H](C(=O)N1CCC1)C4)c2=O [Example 103, 6-{[(7S)-7-(Azetidine-1-carbonyl)-5,6,7,8-tetrahydro[1]benzothieno[2,3-d]pyrimidin-4-yl]amino}-8-chloro-2H-spiro[imidazo[1,5-a]pyridine-3,3′-thietane]-1,5-dione]
